According to US10435405B2, “Pyrazolopyridine compounds and uses thereof” (Incyte Corporation, priority 2016, dated 2019):

Molecular target: HPK1 (Homo sapiens (Human), UniProt Q92918)
Test: HPK1 Kinase Binding Assay
Method in brief: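 This is a LanthaScreen tracer-binding format: a tracer 222/Eu-anti-GST antibody mix (18 nM and 4 nM solution) is added to active HPK1 (4 nM solution) with 3-fold, 11-point compound dilutions. Incubation is 1 h at 25 °C in HEPES pH 7.5 buffer before reading, and Ki is determined.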

Chain of HPK1 (Q92918 1-346): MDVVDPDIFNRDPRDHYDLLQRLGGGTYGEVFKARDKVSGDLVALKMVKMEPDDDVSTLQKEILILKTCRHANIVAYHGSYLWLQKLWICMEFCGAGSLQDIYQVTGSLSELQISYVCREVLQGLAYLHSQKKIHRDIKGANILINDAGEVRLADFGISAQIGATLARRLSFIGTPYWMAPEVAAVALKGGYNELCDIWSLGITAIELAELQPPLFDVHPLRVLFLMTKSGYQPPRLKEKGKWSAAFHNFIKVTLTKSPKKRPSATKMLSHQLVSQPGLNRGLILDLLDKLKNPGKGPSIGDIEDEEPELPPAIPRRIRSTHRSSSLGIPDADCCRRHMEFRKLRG

Compound | Ki [nM]
CNCc1ccc(F)c(-c2cc3c(-c4cnn(C)c4)n[nH]c3cn2)c1F [Example 127, 1-(2,4-Difluoro-3-(3-(1-methyl-1H-pyrazol-4-yl)-1H-pyrazolo[3,4-c]pyridin-5-yl)phenyl)-N-methylmethanamine] | ≤ 100
CNCc1cc(C)c(-c2cc3c(-c4cnn(-c5ccccc5C#N)c4)n[nH]c3cn2)c(F)c1 [Example 135, 2-(4-(5-(2-Fluoro-6-methyl-4-((methylamino)methyl)phenyl)-1H-pyrazolo[3,4-c]pyridin-3-yl)-1H-pyrazol-1-yl)benzonitrile] | ≤ 100
Cc1c(CN2CCC2)ccc(F)c1-c1cc2c(-c3cnn(C)c3)n[nH]c2cn1 [Example 94, 5-(3-(Azetidin-1-ylmethyl)-6-fluoro-2-methylphenyl)-3-(1-methyl-1H-pyrazol-4-yl)-1H-pyrazolo[3,4-c]pyridine] | ≤ 100
COc1cccc(F)c1-c1cc2c(NC(=O)c3ccc(F)c(C)c3)n[nH]c2cn1 [Example 10, 4-Fluoro-N-(5-(2-fluoro-6-methoxyphenyl)-1H-pyrazolo[3,4-c]pyridin-3-yl)-3-methylbenzamide] | ≤ 100
Cn1cc(-c2n[nH]c3cnc(-c4c(F)ccc(NC(=O)Cc5ccccc5)c4F)cc23)cn1 [Example 60, N-(2,4-Difluoro-3-(3-(1-methyl-1H-pyrazol-4-yl)-1H-pyrazolo[3,4-c]pyridin-5-yl)phenyl)-2-phenylacetamide] | ≤ 100
CNCc1cc(F)c(-c2cc3c(-c4cnn(C)c4)n[nH]c3cn2)c(C(F)F)c1 [Example 235, 1-(3-(Difluoromethyl)-5-fluoro-4-(3-(1-methyl-1H-pyrazol-4-yl)-1H-pyrazolo[3,4-c]pyridin-5-yl)phenyl)-N-methylmethanamine] | ≤ 100
COc1cccc(F)c1-c1cc2c(NC(=O)c3ccc(N4CCN(C)C(=O)C4)cc3)n[nH]c2cn1 [Example 27, N-(5-(2-fluoro-6-methoxyphenyl)-1H-pyrazolo[3,4-c]pyridin-3-yl)-4-(4-methyl-3-oxopiperazin-1-yl)benzamide] | ≤ 100
Cc1cc(CNCCO)cc(F)c1-c1cc2c(-c3cnn(C)c3)n[nH]c2cn1 [Example 180, 2-(3-Fluoro-5-methyl-4-(3-(1-methyl-1H-pyrazol-4-yl)-1H-pyrazolo[3,4-c]pyridin-5-yl)benzylamino)ethanol] | ≤ 100
CN1CCN(c2ccc(-c3n[nH]c4cnc(-c5cc(F)cc(C6(CN)CC6)c5)cc34)cc2)CC1 [Example 42, 1-[1-(3-Fluoro-5-{3-[4-(4-methylpiperazin-1-yl)phenyl]-1H-pyrazolo[3,4-c]pyridin-5-yl}phenyl)cyclopropyl]methanamine] | ≤ 100
Cc1c(CNCC2(C)CC2)ccc(F)c1-c1cc2c(-c3cnn(C)c3)n[nH]c2cn1 [Example 224, N-(4-Fluoro-2-methyl-3-(3-(1-methyl-1H-pyrazol-4-yl)-1H-pyrazolo[3,4-c]pyridin-5-yl)benzyl)-1-(1-methylcyclopropyl)methanamine] | ≤ 100
Cn1cc(-c2n[nH]c3cnc(-c4c(F)ccc(CCNC5CCOCC5)c4F)cc23)cn1 [Example 98, N-(2,4-Difluoro-3-(3-(1-methyl-1H-pyrazol-4-yl)-1H-pyrazolo[3,4-c]pyridin-5-yl)phenethyl)tetrahydro-2H-pyran-4-amine] | ≤ 100
CNC1CCc2cc(F)c(-c3cc4c(-c5ccc(N6CCN(C)CC6)cc5)n[nH]c4cn3)c(F)c2C1 (stereo not shown) [Example 199, 6,8-Difluoro-N-methyl-7-(3-(4-(4-methylpiperazin-1-yl)phenyl)-1H-pyrazolo[3,4-c]pyridin-5-yl)-1,2,3,4-tetrahydronaphthalen-2-amine] | ≤ 100
CNCc1cc(C)c(-c2cc3c(-c4cnn(C5CC5)c4)n[nH]c3cn2)c(F)c1 [Example 134, 1-(4-(3-(1-Cyclopropyl-1H-pyrazol-4-yl)-1H-pyrazolo[3,4-c]pyridin-5-yl)-3-fluoro-5-methylphenyl)-N-methylmethanamine] | ≤ 100
